Source: patent US4797472A, “New peptide derivatives” (KabiVitrum AB, priority 1986, dated 1989)

Key:
Thrombin bovine = molecular target: T1, Thrombin bovine (Bos taurus, UniProt P00735); assay: Determination of thrombin sensitivity; format: biochemical; conditions: for Km: substrate 0.1-0.4 mmol/l
T1 construct: Thrombin bovine (KabiVitrum) with a constant concentration E0 =1.3 nmol/l; purchased KabiVitrum

FXa bovine = FXa bovine (Bos taurus, UniProt P00743); assay: Determination of the kinetic constants for FXa bovine (chromogenic/fluorogenic substrate hydrolysis)
Sequence of FXa bovine (P00743 234-492 limits assumed): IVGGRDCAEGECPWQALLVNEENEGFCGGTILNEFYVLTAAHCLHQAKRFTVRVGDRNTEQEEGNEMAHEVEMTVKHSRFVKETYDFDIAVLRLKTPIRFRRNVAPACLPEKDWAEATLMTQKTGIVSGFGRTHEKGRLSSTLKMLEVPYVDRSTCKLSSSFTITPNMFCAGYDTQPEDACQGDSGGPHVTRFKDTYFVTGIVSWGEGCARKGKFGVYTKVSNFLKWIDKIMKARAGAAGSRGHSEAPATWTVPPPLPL
Sequence of FXa bovine (P00743 41-180 partner limits assumed): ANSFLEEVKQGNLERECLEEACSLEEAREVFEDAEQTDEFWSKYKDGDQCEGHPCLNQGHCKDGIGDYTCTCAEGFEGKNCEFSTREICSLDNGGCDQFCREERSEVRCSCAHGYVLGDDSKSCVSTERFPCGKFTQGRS
Procedure: Enzymes and substrates are mixed in a buffer solution at -37° C. The absorbance change per minute is measured at 405 nm in a spectrophotometer (pNA-substrate) or in a spectrofluorometer at excitation wavelength 380 nm and emission wavelength 440 nm (AMC-substrate).
FXa bovine (KabiVitrum) with a constant enzyme concentration
E0 =4 nmol/l (pNA-substrate)
E0 =2 nmol/l (AMC-substrate)
and the substrate in concentrations between 0.01-0.4 mmol/l (Si) are mixed in a trisbuffer solution 0.05 mol/l, pH=8.3, I=0.25 (NaCl) at 37° C. Absorbance change per minute is measured at 405 nm in a spectrophotometer for pNA-substrate and in a spectrofluorometer at emission wavelength 440 nm for AMC-substrate, respectively.

FXa human = molecular target: T2, FXa human (Homo sapiens, UniProt P00742); assay: Determination of kinetic constants for FXa human (plasma activated with RVV+CaCl2); format: biochemical; conditions: for Km: substrate 0.1-0.7 mmol/l, trisbuffer pH 7.0, I=0.25, polybrene, 37° C.
T2 construct: from tissue; host or cells: human plasma
T2 sequence (P00742 235-488 limits assumed): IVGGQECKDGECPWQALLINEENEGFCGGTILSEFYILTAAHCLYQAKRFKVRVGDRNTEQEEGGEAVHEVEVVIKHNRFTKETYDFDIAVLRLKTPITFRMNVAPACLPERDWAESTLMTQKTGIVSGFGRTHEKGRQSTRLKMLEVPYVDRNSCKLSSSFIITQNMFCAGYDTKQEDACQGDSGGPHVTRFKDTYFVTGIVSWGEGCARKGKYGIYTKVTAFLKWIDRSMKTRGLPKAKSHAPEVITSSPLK
T2 sequence (P00742 41-179 partner limits assumed): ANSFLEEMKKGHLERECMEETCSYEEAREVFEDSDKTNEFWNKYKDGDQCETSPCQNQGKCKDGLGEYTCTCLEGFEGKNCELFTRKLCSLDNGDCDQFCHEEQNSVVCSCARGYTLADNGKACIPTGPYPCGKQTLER
Procedure: The kinetic data for the substrates are determined by measuring the initial velocity of hydrolysis (Vi) at different substrate concentrations (Si) and at constant enzyme concentrations (Eo). The binding constant (Km) and the maximum velocity (Vmax) are obtained in known manner from Lineweaver-Burk-plot, then the Kcat is calculated (Hemker H. C. loc. cit.)
The substrates in concentrations between 0.1-0.7 mmol/l (Si) are mixed with FXa human plasma and treated according to the method as described by Aurell; L., et al. (Perspectives in Hemostatis, Ed. Fareed J. et al, New York, Pergamon Press 1981, p. 382-388).
10 μl test plasma, control or standard and 200 μl trisbuffer solution (0.05 mol/l tris, pH 7.0, I=0.25 (NaCl)), polybrene (0.1 g/l) are mixed and incubated at 37° C. for 2-4 minutes. 200 μl substrate (37° C.) in concentrations between 0.1-0.7 mmol/l dissolved in trisbuffer solution prepared according to the above are added. The mixture is well stirred and within 30 seconds 200 μl RVV+CaCl2 (20°-25° C.) are added and the mixture is stirred. The absorbance change is measured at once in a spectrophotometer at 405 nm and 37° C.

[1] = Thrombin bovine E0=1.3 nmol/l, trisbuffer pH 8.3, I=0.25, 37° C.
[2] = trisbuffer pH 7.0, I=0.25, 37° C.

Compound | ratio for the selectivity constant FXa bovine through thrombin (Thrombin bovine; Kcat/Km FXa bovine divided by Kcat/Km thrombin bovine) | Km (Thrombin bovine; [1]) [µM] | Kcat (Thrombin bovine; [1]) [sek^-1] | Kcat /Km (Thrombin bovine; Thrombin bovine, trisbuffer pH 8.3, I=0.25, 37° C.) | Km (FXa bovine; FXa bovine E0=4 nmol/l (pNA-substrate) or 2 nmol/l (AMC-substrate), substrate 0.01-0.4 mmol/l, trisbuffer 0.05 mol/l, pH 8.3, I=0.25, 37° C.) [µM] | Kcat (FXa bovine; FXa bovine E0=4 nmol/l (pNA-substrate) or 2 nmol/l (AMC-substrate), trisbuffer pH 8.3, I=0.25, 37° C.) [sek^-1] | Kcat /Km (selectivity constant) (FXa bovine; FXa bovine, trisbuffer pH 8.3, I=0.25, 37° C.) [l/μmol · sek] | Km (FXa human) [µM] | Vmax (FXa human; [2]) [µmol/L/min] | Vmax /Km (FXa human; [2]) [min⁻¹]
Bz--Ile--Glu--(γ--OR)--Gly--ARg--pNA.HCl [Example S-2222] | 19.4 | 710 | 13 | 0.018 1/μmol · sek | 510 | 180 | 0.35 | 1970 | 46 | 0.023
N=C(N)NCCC[C@H](NC(=O)CNC(=O)[C@@H](CCCNC(=N)N)NS(=O)(=O)Cc1ccccc1)C(=O)Nc1ccc([N+](=O)[O-])cc1 [Example 16, N^α --Bzls--D--Arg--Gly--Arg--pNA.2HCl] | – | 160 | – | – | – | – | – | 50 | – | –
COc1ccc(COC(=O)N[C@H](CCCNC(=N)N)C(=O)NCC(=O)N[C@@H](CCCNC(=N)N)C(=O)Nc2ccc([N+](=O)[O-])cc2)cc1 [Example 9, N^α --Moz--D--Arg--Gly--Arg--pNA.2HCl] | – | 73 | – | – | – | – | – | 210 | – | –
